Laboratory results as given in patent US8252740B2, “Thermally-targeted delivery of medicaments including doxorubicin” (The University of Mississippi Medical Center, priority 2006, dated 2012).

Tests used:
Type in all cases: cell-based, human
[1] = test system: MES-SA uterine sarcoma cells; test: Polypeptide uptake by flow cytometry of Dox fluorescence
Procedure: In order to test whether the induction of ELP aggregation with hyperthermia can enhance the cellular uptake of the polypeptide, MES-SA uterine sarcoma cells were incubated with Tat-ELP-GFLG-DOX (SEQ ID NO: 3) for 1 h at either 37 or 42° C. Cells were then analyzed by flow cytometry, using the natural DOX fluorescence to quantify the amount of drug in the cells. When treated with the ELP1 containing construct, which aggregates at 40° C., the amount of drug delivered to the cells increases almost 2-fold (FIG. 10). […] This illustrates that the enhanced uptake observed after hyperthermia is the result of the ELP phase transition, not nonspecific effects of hyperthermia.
1.6. Polypeptide Uptake. Cells were treated with 20 μM Tat-ELP1-GFLG-Dox (SEQ ID NO: 3), Tat-ELP2-GFLG-Dox (SEQ ID NO: 3), or control polypeptides lacking the Tat sequence as described above. Duplicate plates were treated for 1 h at 37° C. and 42° C. Cells were rinsed with PBS and harvested using nonenzymatic cell dissociation buffer (Invitrogen), centrifuged for 2 min, and resuspended in 0.5 ml PBS. Total uptake of the doxorubicin labeled polypeptides was measured using the intrinsic Dox fluorescence by a Cytomics FC 500 flow cytometer (Beckman Coulter, Fullerton, Calif.). Forward versus side scatter gating was used to remove cell debris from the analysis, and Dox fluorescence was measured using FL3. Each histogram was a unimodal peak (n=5000 cells), and the peak mean was normalized to propidium standard beads.
3.3. Cellular Uptake of ELP-delivered Doxorubicin. MES-SA uterine sarcoma cells were used in this study to evaluate the efficiency of ELP-mediated cellular delivery of doxorubicin. […] After harvesting the cells with non-enzymatic cell dissociation buffer to prevent degradation of polypeptide attached to the cell surface, the non-fixed cells were analyzed by flow cytometry to measure the Dox fluorescence. […] Cellular fluorescence was increased over 2 fold when the MES-SA cells were treated with Tat-ELP1-GFLG-Dox (SEQ ID NO: 3) at 42° C. rather than 37° C. […]

MES-SA cells [2] = test: Caspase activation, FLICA polycaspase assay with flow cytometry; settings: 10 μM
Procedure: MES-SA cells were treated for 1 h at 37 or 42° C. with Tat-ELP-GFLG-DOX (SEQ ID NO: 3), the control construct lacking the Tat sequence, with free DOX. Cells were harvested after the 1 h exposure, and caspase activity was detected using a fluorescent caspase inhibitor (Immunochemistry Technologies, Bloomington, Minn.) and flow cytometry.
Caspase activation was measured using a carboxyfluorescein FLICA polycaspase assay (Immunochemistry Technologies, Bloomington, Minn.). Cells were treated as described above with the indicated protein, collected by trypsinization, and stained for 2 h at 37° C. with the carboxyfluorescein FLICA reagent as described by the manufacturer. Cells were rinsed twice and analyzed for caspase activation by flow cytometry using a Cytomics FC 500 flow cytometer (n=5,000 cells). Forward versus side scatter gating was used to eliminate cell debris from the analysis, and a histogram of fluorescein fluorescence (channel FL1) was bimodal with peaks for caspase positive and caspase negative cells. The percentage of caspase positive cells was determined from the histograms and expressed as an average of 3 experiments.
MES-SA cells were treated as described above, cells were harvested after the 1 h exposure, and caspase activity was detected using a fluorescent caspase inhibitor and flow cytometric analysis. […] Cell numbers under each peak were quantified and averaged to determine the percentage of the cell population in which caspases were activated under each treatment condition. […] In fact, the percent of caspase positive cells was enhanced almost 4 fold when cells were treated with Tat-ELP1-GFLG-Dox (SEQ ID NO: 3) at 42° C. versus 37° C. (p<0.05).

MES-SA cells [3] = test: DIC microscopy of apoptotic cell morphology; settings: 10 μM
Procedure: 1.9. Apoptosis Assays. For differential interference contrast (DIC) microscopy, MES-SA cells were plated onto 22 mm^2 coverslips at 50% confluence. Cells were treated as described above with the indicated protein, rinsed with PBS, and mounted onto glass slides. The unfixed cells were imaged immediately using a Zeiss Axiovert 200 DIC microscope with a 40× oil immersion objective and a Coolsnap HQ camera.
2.6. Induction of Apoptosis. […] This effect was documented by treating MES-SA cells adhered to glass cover slips with each construct and imaging them by DIC microscopy. Cells were treated for 1 h as described above, then immediately mounted on slides and imaged without fixation. […] Untreated cells were spread onto the glass, and morphological features such as nuclei and endocytic vesicles were readily visible. This morphology was not altered by simply exposing the cells to hyperthermia. […] However, such effects were minor and limited to a fraction of the cells. […] All cells examined were rounded with no discernable nucleus and fragmented chromosomes.

MES-SA cells [4] = test: Confocal fluorescence microscopy of intracellular localization; settings: 10 μM
Procedure: 1.7. Laser Scanning Confocal Fluorescence Microscopy. MES-SA cells were plated on 22 mm^2 cover slips at approximately 50% confluence and treated as described above with Tat-ELP-GFLG-Dox (SEQ ID NO: 3). Cells were rinsed with PBS at the indicated times, fixed with paraformaldehyde (PFA, 2% v/v) and visualized using a TCS SP2 laser scanning confocal microscope with a 100× oil immersion objective (Leica, Wetzlar, Germany). PMT voltages were lowered for imaging of cells treated at 42° C. during image acquisition to maximize image resolution and intensity.
3.4. Cellular Distribution. To confirm that Tat-ELP-GFLG-Dox (SEQ ID NO: 3) was internalized and not merely attached to the cell exterior, the cellular distribution of the ELP-delivered drug was examined by confocal fluorescence microscopy. MES-SA cells were treated for 1 h at 37° C. and 42° C. with 10 μM Tat-ELP1-GFLG-Dox (SEQ ID NO: 3). The cells were rinsed and analyzed immediately after treatment and 24 h later using the intrinsic Dox fluorescence. […] Untreated cells had no signal under the imaging settings used, ruling out any contribution to the images from autofluorescence (FIG. 7B, right panel).

For Tat-ELP1-GFLG-Dox, the “Increase of drug delivered to cells at 42° C. versus 37° C.” value ([1]; 10 μM, 1 h (FIG. 10)) was ~2 fold, the “Increase of cellular fluorescence at 42° C. versus 37° C.” value ([1]; 20 μM, 1 h) was “over 2 fold” and the “Uptake relative to ELP1-GFLG-Dox” value ([1]; 20 μM, 1 h, 42° C.) was 6 fold. For the same substance, the “Enhancement of percent caspase positive cells at 42° C. versus 37° C.” value (MES-SA cells [2]; 1 h) was ~4 fold, the “Caspase activation / apoptosis induction” value (MES-SA cells [2]; 1 h at 37° C.) was “slightly above control levels” and the “Caspase activation / apoptosis induction” value (MES-SA cells [2]; 1 h at 42° C.) was “significantly higher proportion of the population”. For the same substance, the “Cell morphology (hallmarks of apoptosis)” value (MES-SA cells [3]; 1 h at 37° C. (below the Tt)) was “more extensive rounding and blebbing”, the “Cell morphology (hallmarks of apoptosis)” value (MES-SA cells [3]; 1 h at 42° C. (above the Tt)) was “normal cell morphology was completely destroyed” and the “Intracellular localization of Dox” value (MES-SA cells [4]; 24 h after 1 h exposure) was “remained in the cell cytoplasm”. The “Intracellular localization of Dox” value (MES-SA cells [4]; after 1 h exposure) was “plasma and nuclear membranes as well as in a punctate pattern in the cytoplasm”.
